These results are taken from ChEMBL document CHEMBL1649502, “Characterization of cefoxitin-resistant Escherichia coli isolates from recreational beaches and private drinking water in Canada between 2004 and 2006” (2009).

Structures are written as SMILES.

The subject of this test is Escherichia coli. The experiment in a line: Antibacterial activity against cefoxitin-resistant Escherichia coli by microdilution method. It counts as functional. For orientation: Dilution methods test growth across graded concentrations, often in twofold steps.
For `CO[C@@]1(NC(=O)Cc2cccs2)C(=O)N2C(C(=O)O)=C(COC(N)=O)CS[C@@H]21` [CEFOXITIN], the MIC was ≥ 16 µg/mL.

Take `CN[C@@H]1[C@H](O[C@H]2[C@H](O[C@H]3[C@H](O)[C@@H](O)[C@H](N=C(N)N)[C@@H](O)[C@@H]3N=C(N)N)O[C@@H](C)[C@]2(O)C=O)O[C@@H](CO)[C@H](O)[C@H]1O` [STREPTOMYCIN]: the MIC is ≥ 64 µg/mL.

As to `CO/N=C(\C(=O)N[C@@H]1C(=O)N2C(C(=O)O)=C(CSC(=O)c3ccco3)CS[C@H]12)c1csc(N)n1` [CEFTIOFUR], the minimal inhibitory concentration (MIC) was ≥ 8 µg/mL.

What is called MIC is the lowest concentration that inhibits growth of the organism. Read a low MIC as greater potency.
